From ChEMBL document CHEMBL3526148, “Cerebrospinal fluid can be used as a surrogate to assess brain exposures of breast cancer resistance protein and P-glycoprotein substrates” (Drug Metab Dispos, 2012)
Each block holds one compound with its values, some of them ahead of it.

Tests used:
Format in all cases: ADME, cell-based
[1] = Inhibition of P-gp-mediated [3H]-digoxin transport in human Caco2 cells at 1 uM after 30 mins; details: caco-2, 0.5 h
[2] = biological target: T1, Broad substrate specificity ATP-binding cassette transporter ABCG2 (Homo sapiens, UniProt Q9UNQ0); assay: Inhibition of BCRP-mediated [3H]estrone-3-sulfate transport in human Caco2 cells at 1 uM after 30 mins; details: caco-2, 0.5 h
T1 sequence (Q9UNQ0 whole entry): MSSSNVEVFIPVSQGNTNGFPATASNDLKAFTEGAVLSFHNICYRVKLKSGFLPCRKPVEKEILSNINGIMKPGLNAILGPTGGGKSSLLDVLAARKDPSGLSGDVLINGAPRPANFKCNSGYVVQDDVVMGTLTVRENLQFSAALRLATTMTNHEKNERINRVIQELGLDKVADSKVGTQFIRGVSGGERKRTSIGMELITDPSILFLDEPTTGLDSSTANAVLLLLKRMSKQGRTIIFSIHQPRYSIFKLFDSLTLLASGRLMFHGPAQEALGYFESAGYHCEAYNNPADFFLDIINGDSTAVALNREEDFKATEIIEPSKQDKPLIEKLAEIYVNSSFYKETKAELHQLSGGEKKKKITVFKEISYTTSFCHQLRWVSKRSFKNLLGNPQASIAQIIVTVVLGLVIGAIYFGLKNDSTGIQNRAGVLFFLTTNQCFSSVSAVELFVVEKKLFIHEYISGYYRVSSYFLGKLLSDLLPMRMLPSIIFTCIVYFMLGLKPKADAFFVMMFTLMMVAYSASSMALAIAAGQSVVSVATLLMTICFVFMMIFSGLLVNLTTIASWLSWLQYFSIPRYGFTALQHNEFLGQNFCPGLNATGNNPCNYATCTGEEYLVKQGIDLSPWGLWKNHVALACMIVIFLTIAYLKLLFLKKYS

[3] = biological target: T1, Broad substrate specificity ATP-binding cassette transporter ABCG2; assay: Inhibition of BCRP-mediated [3H]estrone-3-sulfate transport in human Caco2 cells at 3 uM after 30 mins; details: caco-2, 0.5 h
[4] = Inhibition of P-gp-mediated [3H]-digoxin transport in human Caco2 cells at 3 uM after 30 mins; details: caco-2, 0.5 h
[5] = Inhibition of P-gp-mediated [3H]-digoxin transport in human Caco2 cells at 10 to 50 uM after 30 mins; details: caco-2, 0.5 h
[6] = Apparent permeability from apical to basolateral side in human Caco2 cells at 5 uM after 2 hrs; details: Caco-2
[7] = Apparent permeability from basolateral to apical side in human Caco2 cells at 5 uM after 2 hrs; details: Caco-2

inhibition (INH) [1]: Active
inhibition (INH) [2]: Not Active
Structure (SMILES): C/C=C/C[C@@H](C)C(=O)[C@H]1C(=O)N[C@@H](C(C)C)C(=O)N(C)CC(=O)N(C)[C@@H](CC(C)C)C(=O)N[C@@H](C(C)C)C(=O)N(C)[C@@H](CC(C)C)C(=O)N[C@@H](C)C(=O)N[C@H](C)C(=O)N(C)[C@@H](CC(C)C)C(=O)N(C)[C@@H](CC(C)C)C(=O)N(C)[C@@H](C(C)C)C(=O)N1C [VALSPODAR]

inhibition (INH) [3]: Active
inhibition (INH) [4]: Active
Structure (SMILES): COc1cc2c(cc1OC)CN(CCc1ccc(NC(=O)c3cccc4c(=O)c5cccc(OC)c5[nH]c34)cc1)CC2

Structure (SMILES): COc1ccc2c3c([nH]c2c1)[C@H](CC(C)C)N1C(=O)[C@H](CCC(=O)OC(C)(C)C)NC(=O)[C@@H]1C3
inhibition (INH) [4]: Not Active

inhibition (INH) [5]: Not Active
Papp A→B at 2 h, 5 µM [6]: 2 ×10⁻⁶ cm/s
Papp B→A at 2 h, 5 µM [7]: 9.8 ×10⁻⁶ cm/s
Structure (SMILES): O=C1CN(/N=C/c2ccc(-c3ccc([N+](=O)[O-])cc3)o2)C(O)=N1 [DANTROLENE]
